Test results: patent US20070190520A1, “METHOD OF CHARACTERIZING A BIOLOGICALLY ACTIVE COMPOUND” (priority 2006, published 2007)

Test system: Adult stem cells from peripheral blood (CD34+/CD38−)
Assay: viability and cell number of peripheral blood stem cells expanded in a rotatable TVEMF bioreactor (Example 4)
Type: cell-based
Details: 20 ppm added at initiation, end of 14 days, Sample 2 cells from an individual with known liver damage
Procedure: The rotatable bioreactor may preferably be filled with culture medium consisting of Isocove's modified Dulbecco's medium (IMDM) (GIBCO, Grand Island N.Y.), supplemented with 5% human albumin, 100 ng/ml recombinant human G-CSF (Amgen Inc., Thousand Oaks, Calif.), and 100 ng/ml recombinant human stem cell factor (SCF) (Amgen). In addition, D-Penicillamine [D(−)-2-Amino-3-mercapto-3-methylbutonoic acid] (Sigma-Aldrich) a copper chelating agent, dissolved in DMSO, may preferably be introduced to the culture medium in the rotatable bioreactor in an amount of 10 ppm. Adult stem cells from peripheral blood (CD34+/CD38−) may preferably be placed in the culture chamber of the rotatable bioreactor at a concentration of 0.75×10^6 cells/ml.
Two samples of peripheral blood stem cells should preferably be prepared by this method. Sample 1 should preferably be from an individual with no known liver damage. Sample 2 should preferably be from an individual with known liver damage. The samples should be prepared as above and placed in two different rotatable bioreactors under the conditions noted in Example 1 and at the same concentrations.

How did the “viability and number of cells counted” value turn out when `CC(=O)Nc1ccc(O)cc1` [acetaminophen] was run?
Its value is “neither die nor grow, but rather, remain unchanged”.
